In brackets after ≈: the same amount, converted by molar mass. Several values for one entry are separate records, joined by “and”; a condition that tells them apart may be missing. Equal entries are not always repeated. Where a SMILES comes first, the peptide text is derived from it. The star is where a group is joined. Orn(α-tetramethylguanidino) = CN(C)C(=N[C@@H](CCCN)C(=O)*)N(C)C

The test system of series [1] is E. coli RN31. Briefly: Minimum inhibitory concentration (MIC) against E. coli RN31. To be noted: E. coli RN31, 33% TSB, 37 °C overnight (~16 h), 7.5 × 10^6 bacteria/mL; two independent experiments with two replicates each (n = 4). It counts as cell-based, Escherichia coli. The protocol:
Minimum inhibitory concentrations were determined for E. coli RN31 grown in 33% TSB (37 °C, 200 rpm) with a starting OD600 of 0.05. After four hours, the cell count was adjusted to 1.5 × 10^7 bacteria/mL. In a transparent 96-well plate, the peptides were diluted in a two-fold dilution series in 33% TSB over 10 dilution steps, and E. coli was added to obtain a final cell count of 7.5 × 10^6 bacteria/mL and incubated at 37 °C overnight. OD600 was determined using a PARADIGM^TM microplate reader (Beckman Coulter, Salzburg, Austria) before and after cultivation. The MIC was defined as the lowest peptide concentration preventing visible bacterial growth.

A further series relates to eukaryotic cell lines. To be noted: cited from earlier work.
The subject of series [2] is in vitro expression of sfGFP in the presence of RF1. Description: In vitro transcription-translation (iTT) assay of sfGFP in the presence of RF1. The format is biochemical. To be noted: peptide 5 µmol/L, RF1, 37 °C, 2 h, fluorescence; normalized to absence of PrAMPs; n = 3. Put shortly: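 Cell-free PURExpress ΔRF123 system was supplemented with 50-fold-diluted RF1 and a sfGFP template ending in a UAG stop codon (35 ng, 0.1325 pmol). PrAMP was added from a 50 or 0 µmol/L aqueous solution. Reactions ran at 37 °C for 2 h, with fluorescence (ex 485/em 535 nm) read every 10 min.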

For series [3], the system named is E. coli RN31. Briefly: Growth inhibition of E. coli RN31 during 90 min exponential growth phase. It counts as cell-based, Escherichia coli. To be noted: E. coli RN31, 33% TSB, peptide 8 µg/mL, 90 min, OD600; two biological replicates (n = 2).

Consider `CC[C@H](C)[C@H](NC(=O)[C@H](Cc1ccc(O)cc1)NC(=O)[C@@H](NC(=O)[C@@H]1CCCN1C(=O)[C@H](CCCNC(=N)N)NC(=O)[C@H](CC(N)=O)NC(=O)[C@H](CC(N)=O)NC(=O)[C@H](CCCN)N=C(N(C)C)N(C)C)C(C)C)C(=O)N1CCC[C@H]1C(=O)N[C@@H](CCCNC(=N)N)C(=O)N1CCC[C@H]1C(=O)N[C@@H](CCCNC(=N)N)C(=O)N1CCC[C@H]1C(=O)N1CCC[C@H]1C(=O)N[C@@H](Cc1c[nH]cn1)C(=O)N1CCC[C@H]1C(=O)N[C@@H](CCCNC(=N)N)C(=O)N[C@@H](CC(C)C)C(=O)O` [Api137] ({Orn(α-tetramethylguanidino)}-NNRPVYIPRPRPPHPRL-OH; N-terminus and C-terminus assumed), for which, in the series on E. coli RN31 [1], the MIC was 4 µg/mL (≈ 1.75 µM). The “cytotoxicity to eukaryotic cell lines” value in the series on eukaryotic cell lines is recorded as “virtually non-toxic”. The “Residual iTT (sfGFP expression relative to no PrAMP)” value in series [2] is 22% and 22 ± 6.2%. Further, in the series on E. coli RN31 [3], the “reduction of bacterial growth vs untreated control” value was found to be 70%.

The MIC is the lowest concentration found to suppress growth. The low end stands for greater potency, the high end for weaker potency.

Values taken from article PMC12189828, “Substitution of Proline Residues by 4-Fluoro-L-Proline Affects the Mechanism of the Proline-Rich Antimicrobial Peptide Api137” (Antibiotics, 2025).
